The structures appear in SMILES notation. Like-named read-outs stand apart in the source and are kept apart here.

Data set [1] relates to MDCKII-MDR1 cells. Kind of data set: MDCKII-MDR1 permeability assay. The format is in vitro ADME. To be noted: permeability in MDCK-MDR1 cells. The protocol:
High throughput […]1 permeability was performed in the Transwell® 0.4 μm polycarbonate membrane 96-well system with modified methods (Refs. 38-39). […]1 cells were maintained at 37° C. in a humidified incubator with an atmosphere of 5% CO2. The cells were cultured in 75 cm^2 flasks with Dulbecco's Modified Eagle's Medium (DMEM) containing 10% fetal bovine serum (FBS), 1% non-essential amino acids (NEAA), 100 units/ml of penicillin, and 100 μg/ml of streptomycin. The […]1 cells were seeded onto inserts at a density of 2×10^4 and 1×10^4 cells/insert separately. The medium in the wells was exchanged each other day, and the trans epithelial electrical resistance (TEER) value was measured using an epithelial volt-ohm meter (Millipore, Billerica, Massachusetts). […] For transport experiments, each cultured monolayer on the 96-well plate was washed twice with a transport buffer (HBSS/25 mM HEPES, pH 7.4). The permeability assay was initiated by the addition of each compound solution (10 μmol/L) into inserts (apical side, A) or receivers (basolateral side, B). The MDCKII-MDR1 cell monolayers were incubated for 1 hour at 37° C. Fractions were collected from receivers (if apical to basal permeability) or inserts (if basal to apical permeability), and concentrations were assessed by UPLC/MS (Waters; Milford, MA). All compounds were tested in triplicates. The A→B (or B→A) apparent permeability coefficients (Papp) of each compound were calculated using the equation, Papp=dQ/dt×1/AC0, where dQ/dt equals the flux of a drug across the monolayer, A equals the total insert well surface area, and C0 is the initial concentration of substrate in the donor compartment. The efflux ratio was determined by dividing the Papp in the B-A direction by the Papp in the A-B direction.

Data set [2] deals with 6×His-CRBN-DDB1 protein (Homo sapiens (Human), UniProt Q96SW2). The data set is described as follows: CRBN fluorescence polarization assay. The class given is binding. Here is the method: 6×His-CRBN-DDB1 protein (200 nM) and Cy5-O-Len probe (30 nM) were combined in 20 mM HEPES pH 7, 150 mM NaCl, 0.005% Tween-20 assay buffer. […] The plates were incubated in the dark for 1 hour at room temperature and then read on an Envision plate reader (PerkinElmer, Massachusetts, USA).
Sequence of 6×His-CRBN-DDB1 protein (Q96SW2 whole entry): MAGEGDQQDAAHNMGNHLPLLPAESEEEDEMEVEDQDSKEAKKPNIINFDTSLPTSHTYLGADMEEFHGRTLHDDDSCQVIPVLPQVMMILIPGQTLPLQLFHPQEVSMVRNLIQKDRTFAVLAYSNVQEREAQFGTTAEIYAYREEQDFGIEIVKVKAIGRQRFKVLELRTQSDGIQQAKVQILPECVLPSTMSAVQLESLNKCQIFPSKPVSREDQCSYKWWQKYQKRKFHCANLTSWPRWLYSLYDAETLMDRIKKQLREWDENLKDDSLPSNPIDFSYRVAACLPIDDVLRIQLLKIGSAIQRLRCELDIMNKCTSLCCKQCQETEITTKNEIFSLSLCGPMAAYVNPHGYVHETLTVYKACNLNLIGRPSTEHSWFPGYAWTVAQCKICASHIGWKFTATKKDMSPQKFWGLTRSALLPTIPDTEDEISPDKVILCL
Sequence of 6×His-CRBN-DDB1 protein (Q16531 whole entry partner): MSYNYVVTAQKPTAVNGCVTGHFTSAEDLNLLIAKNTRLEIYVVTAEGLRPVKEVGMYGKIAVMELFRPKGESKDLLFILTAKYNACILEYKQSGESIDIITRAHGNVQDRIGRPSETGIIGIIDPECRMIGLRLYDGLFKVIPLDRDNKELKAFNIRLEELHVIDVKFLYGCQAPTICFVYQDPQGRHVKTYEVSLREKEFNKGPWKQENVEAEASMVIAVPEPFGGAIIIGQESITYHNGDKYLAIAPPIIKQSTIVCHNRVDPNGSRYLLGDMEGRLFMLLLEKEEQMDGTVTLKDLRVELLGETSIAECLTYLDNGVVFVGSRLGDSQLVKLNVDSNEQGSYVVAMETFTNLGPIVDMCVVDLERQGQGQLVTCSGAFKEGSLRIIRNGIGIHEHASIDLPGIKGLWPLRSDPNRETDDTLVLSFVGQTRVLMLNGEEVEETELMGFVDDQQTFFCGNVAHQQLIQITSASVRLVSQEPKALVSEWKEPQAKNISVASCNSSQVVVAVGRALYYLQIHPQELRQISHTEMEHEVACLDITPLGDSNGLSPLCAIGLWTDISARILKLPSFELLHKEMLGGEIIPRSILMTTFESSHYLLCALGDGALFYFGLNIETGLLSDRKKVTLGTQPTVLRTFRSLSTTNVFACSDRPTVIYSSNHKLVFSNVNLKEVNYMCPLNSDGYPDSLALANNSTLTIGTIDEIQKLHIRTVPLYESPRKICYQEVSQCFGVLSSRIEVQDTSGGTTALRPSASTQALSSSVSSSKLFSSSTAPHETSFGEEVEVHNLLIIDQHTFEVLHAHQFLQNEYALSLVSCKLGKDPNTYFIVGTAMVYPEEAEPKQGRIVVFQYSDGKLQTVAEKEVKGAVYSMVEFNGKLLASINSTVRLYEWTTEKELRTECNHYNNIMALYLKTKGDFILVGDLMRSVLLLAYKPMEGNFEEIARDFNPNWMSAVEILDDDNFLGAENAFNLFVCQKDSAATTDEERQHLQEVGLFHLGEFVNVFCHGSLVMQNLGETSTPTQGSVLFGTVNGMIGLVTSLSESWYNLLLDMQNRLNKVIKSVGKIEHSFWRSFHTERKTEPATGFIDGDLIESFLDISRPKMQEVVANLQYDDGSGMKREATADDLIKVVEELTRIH
On the technique in general: In fluorescence polarisation assays a small probe gives low polarisation when free and higher when bound to something large.

For data set [3], the target named is GSPT1 HiBiT tag protein (Homo sapiens (Human), UniProt P15170+Q96SW2). The data set is described as follows: hGSPT1 HiBiT assay. To be noted: HEK293 hGSPT1 HiBiT cells, 4 hrs incubation; read-out: GSPT1 HiBit EC50. The format is cell-based. Here is the method: hGSPT1 HiBiT cell line. HEK293_hGSPT1_HiBiT tagged cells were generated using CRISPR-Cas12a technology. Briefly, ˜400,000 HEK293 cells were transiently co-transfecting with precomplexed ribonuclear proteins (RNPs) consisting of […] of crRNA (IDT), 62 pmol of Cas12a protein (IDT), 3 ug of ssODN donor (IDT; AltR™ modifications), 78 pmol of electroporation enhancer (IDT), and 200 ng of pMaxGFP (Lonza). The transfection was performed via nucleofection (Lonza, 4D-Nucleofector™ X-unit) using solution P3 and program CM-130 in a small (20 ul) cuvette according to the manufacturer's recommended protocol. Five days post-nucleofection, cells were single cell sorted for GFP+(transfected) cells by FACs in 96-well plates and clonally selected. Clones were screened and verified for the desired modification via targeted deep sequencing using gene specific primers with partial Illumina adapter overhangs as previously described.^58 In brief, clonal cell pellets were harvested, lysed and used to generate gene specific amplicons with partial Illumina adapters in PCR #1. Amplicons were indexed in PCR #2 and pooled with other targeted amplicons for other loci to create sequence diversity. Additionally, 10% PhiX Sequencing Control V3 (Illumina) was added to the pooled amplicon library prior to running the sample on an Miseq Sequencer System (Illumina) to generate paired 2×250 bp reads. […] Editing construct sequences and screening primers are listed below in Table 4.
Sequence of GSPT1 HiBiT tag protein (P15170 whole entry): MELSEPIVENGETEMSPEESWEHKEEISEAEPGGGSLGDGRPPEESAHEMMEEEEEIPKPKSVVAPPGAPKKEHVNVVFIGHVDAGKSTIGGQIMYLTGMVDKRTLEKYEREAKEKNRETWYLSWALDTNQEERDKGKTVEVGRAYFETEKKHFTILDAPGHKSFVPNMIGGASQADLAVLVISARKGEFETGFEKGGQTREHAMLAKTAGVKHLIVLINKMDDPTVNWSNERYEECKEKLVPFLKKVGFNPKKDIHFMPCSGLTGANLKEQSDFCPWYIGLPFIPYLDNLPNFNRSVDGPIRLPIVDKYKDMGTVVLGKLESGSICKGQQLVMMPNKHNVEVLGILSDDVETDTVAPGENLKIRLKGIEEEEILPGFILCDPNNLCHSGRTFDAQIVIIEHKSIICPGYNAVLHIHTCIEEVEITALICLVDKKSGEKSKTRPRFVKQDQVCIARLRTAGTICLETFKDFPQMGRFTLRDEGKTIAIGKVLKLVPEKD
Sequence of GSPT1 HiBiT tag protein (Q96SW2 whole entry): as the sequence (Q96SW2 whole entry) above
Sequence of GSPT1 HiBiT tag protein (Q16531 whole entry partner): as the sequence (Q16531 whole entry partner) above
hGSPT1 HiBiT assay. […] After 4 hrs incubation, the level of GSPT1 HiBiT tag protein was evaluated using Nano-Glo® HiBiT Lytic Detection System (Promega) according to the manufacturer's instruction.

The mark [4] stands for this setting: cereblon binding, class symbols, read-out: CRBN FP IC50.

Take `Cc1ccc(S(=O)(=O)Nc2ccc3c(c2)C(=O)N(C2CCC(=O)NC2=O)C3=O)cc1Cl` (stereo not shown) [Compound 7, 3-chloro-N-(2-(2,6-dioxopiperidin-3-yl)-1,3-dioxoisoindolin-5-yl)-4-methylbenzenesulfonamide]: in data set [1], the Papp was determined as 4.6 ×10⁻⁶ cm/s. Further, the IC50 in data set [2] (setting [4]) is < 1 µM; in data set [2] (fluorescence polarization, Cy5-O-Len probe, read-out: CRBN IC50) it was 0.013 µM. In addition, in data set [3], the DC50 is > 10 µM.
In the case of `O=C1CCC(N2C(=O)c3ccc(NS(=O)(=O)c4ccc(Cl)c(Cl)c4)cc3C2=O)C(=O)N1` (stereo not shown) [Compound 71, 3,4-dichloro-N-(2-(2,6-dioxopiperidin-3-yl)-1,3-dioxoisoindolin-5-yl)benzenesulfonamide], in data set [2] (setting [4]), the half-inhibitory concentration (IC50) was < 1 µM. Besides, the DC50 in data set [3] is > 10 µM.
`O=C1CCC(N2C(=O)c3ccc(NS(=O)(=O)c4cccc(F)c4)cc3C2=O)C(=O)N1` (stereo not shown) [Compound 72, N-(2-(2,6-dioxopiperidin-3-yl)-1,3-dioxoisoindolin-5-yl)-3-fluorobenzenesulfonamide]: in data set [2] (setting [4]), the IC50 was < 1 µM. For the same compound, the DC50 in data set [3] is > 10 µM.
For `Cc1ccc(F)cc1S(=O)(=O)Nc1ccc2c(c1)C(=O)N(C1CCC(=O)NC1=O)C2=O` (stereo not shown) [Compound 75, N-(2-(2,6-dioxopiperidin-3-yl)-1,3-dioxoisoindolin-5-yl)-5-fluoro-2-methylbenzenesulfonamide], in that order: < 1 µM and > 10 µM.
Turning to `O=C1CCC(N2C(=O)c3ccc(NS(=O)(=O)c4ccc(F)c(F)c4)cc3C2=O)C(=O)N1` (stereo not shown) [Compound 76], in data set [2] (setting [4]), the IC50 fell in the range of 1 to 10 µM. The DC50 in data set [3] was > 10 µM.
With `Cc1cc(S(=O)(=O)Nc2ccc3c(c2)C(=O)N(C2CCC(=O)NC2=O)C3=O)c(C)cc1Cl` (stereo not shown) [Compound 77, 4-chloro-N-(2-(2,6-dioxopiperidin-3-yl)-1,3-dioxoisoindolin-5-yl)-2,5-dimethylbenzenesulfonamide], the IC50 in data set [2] (setting [4]) is < 1 µM. Moreover, the DC50 in data set [3] is < 1 µM.
`COc1ccc(Br)cc1S(=O)(=O)Nc1ccc2c(c1)C(=O)N(C1CCC(=O)NC1=O)C2=O` (stereo not shown) [Compound 78, 5-bromo-N-(2-(2,6-dioxopiperidin-3-yl)-1,3-dioxoisoindolin-5-yl)-2-methoxybenzenesulfonamide]: the IC50 in data set [2] (setting [4]) lay in the range of 1 to 10 µM. Also, in data set [3], the DC50 was > 10 µM.
For `O=C1CCC(N2C(=O)c3ccc(NS(=O)(=O)c4ccccc4-c4ccccc4)cc3C2=O)C(=O)N1` (stereo not shown) [Compound 81, N-(2-(2,6-dioxopiperidin-3-yl)-1,3-dioxoisoindolin-5-yl)-[1,1′-biphenyl]-2-sulfonamide], in that order: < 1 µM and > 10 µM.
On to `O=C1CCC(N2C(=O)c3ccc(NS(=O)(=O)c4ccccc4F)cc3C2=O)C(=O)N1` (stereo not shown) [Compound 82, N-(2-(2,6-dioxopiperidin-3-yl)-1,3-dioxoisoindolin-5-yl)-2-fluorobenzenesulfonamide], for which the IC50 in data set [2] (setting [4]) is < 1 µM. Besides, the DC50 in data set [3] was > 10 µM.
For the compound `O=C1CCC(N2C(=O)c3ccc(NS(=O)(=O)c4ccsc4)cc3C2=O)C(=O)N1` (stereo not shown) [Compound 83, N-(2-(2,6-dioxopiperidin-3-yl)-1,3-dioxoisoindolin-5-yl)thiophene-3-sulfonamide], in data set [2] (setting [4]), the IC50 was < 1 µM. Besides, in data set [3], the DC50 is > 10 µM.
As to `O=C1CCC(N2C(=O)c3ccc(NS(=O)(=O)c4cc5ccccc5s4)cc3C2=O)C(=O)N1` (stereo not shown) [Compound 87, N-(2-(2,6-dioxopiperidin-3-yl)-1,3-dioxoisoindolin-5-yl)benzo[b]thiophene-2-sulfonamide], the IC50 in data set [2] (setting [4]) was < 1 µM. In addition, in data set [3], the DC50 is > 10 µM.
For `O=C1CCC(N2C(=O)c3ccc(NS(=O)(=O)Cc4ccc(F)cc4)cc3C2=O)C(=O)N1` (stereo not shown) [Compound 89, N-(2-(2,6-dioxopiperidin-3-yl)-1,3-dioxoisoindolin-5-yl)-1-(4-fluorophenyl)methanesulfonamide], in that order: < 1 µM and > 10 µM.
The like results for `Cc1ccccc1CS(=O)(=O)Nc1ccc2c(c1)C(=O)N(C1CCC(=O)NC1=O)C2=O` (stereo not shown) [Compound 90, N-(2-(2,6-dioxopiperidin-3-yl)-1,3-dioxoisoindolin-5-yl)-1-(o-tolyt)methanesulfonamide] were, in that order, 1 to 10 µM and > 10 µM.
For `O=C1CCC(N2C(=O)c3ccc(NS(=O)(=O)c4ccc(O)cc4)cc3C2=O)C(=O)N1` (stereo not shown) [Compound 92, N-(2-(2,6-dioxopiperidin-3-yl)-1,3-dioxoisoindolin-5-yl)-4-hydroxybenzenesulfonamide], in that order: 1 to 10 µM and > 10 µM.
For the compound `O=C1CCC(N2C(=O)c3ccc(NS(=O)(=O)c4cccc(Cl)c4)cc3C2=O)C(=O)N1` (stereo not shown) [Compound 95, 3-chloro-N-(2-(2,6-dioxopiperidin-3-yl)-1,3-dioxoisoindolin-5-yl)benzenesulfonamide], the concentration for half-maximal inhibition (IC50) in data set [2] (setting [4]) is < 1 µM. In data set [3], the DC50 was > 10 µM.
The like results for `O=C1CCC(N2C(=O)c3ccc(NS(=O)(=O)c4ccc(OC(F)(F)F)cc4)cc3C2=O)C(=O)N1` (stereo not shown) [Compound 96] were, in that order, < 1 µM and > 10 µM.
For `O=C1CCC(N2C(=O)c3ccc(NS(=O)(=O)c4ccccc4Br)cc3C2=O)C(=O)N1` (stereo not shown) [Compound 98, 2-bromo-N-(2-(2,6-dioxopiperidin-3-yl)-1,3-dioxoisoindolin-5-yl)benzenesulfonamide], the concentration for half-maximal inhibition (IC50) in data set [2] (setting [4]) is < 1 µM. In data set [3], the DC50 was < 1 µM.
As for `O=C1CCC(N2C(=O)c3ccc(NS(=O)(=O)c4ccccc4C(F)(F)F)cc3C2=O)C(=O)N1` (stereo not shown) [Compound 99, N-(2-(2,6-dioxopiperidin-3-yl)-1,3-dioxoisoindolin-5-yl)-2-(trifluoromethyl)benzenesulfonamide], the IC50 in data set [2] (setting [4]) was < 1 µM. Also, the DC50 in data set [3] was < 1 µM.
For the compound `COc1ccccc1S(=O)(=O)Nc1ccc2c(c1)C(=O)N(C1CCC(=O)NC1=O)C2=O` (stereo not shown) [Compound 100, N-(2-(2,6-dioxopiperidin-3-yl)-1,3-dioxoisoindolin-5-yl)-2-methoxybenzenesulfonamide], in data set [2] (setting [4]), the IC50 was < 1 µM. Besides, the DC50 in data set [3] is > 10 µM.

As a reminder, the Papp is the rate of passage across a membrane or cell layer, normalised by area and donor concentration. Low readings indicate slow passage, high ones fast passage. The term IC50 denotes the concentration needed to halve the response being measured.

(Values after patent publication US20240132463A1, “SUBSTITUTED N-(2-(2,6-DIOXOPIPERIDIN-3-YL)-1,3-DIOXOISOINDOLIN-5-YL)ARYLSULFONAMIDE ANALOGS AS MODULATORS OF CEREBLON PROTEIN” (ST. JUDE CHILDREN'S RESEARCH HOSPITAL, INC., priority 2020, published 2024).)
